≈ marks a conversion by molar mass, not a printed value. Read-outs that look alike come from different tables or passages of the source.
Legend:
[1] = Metal chelation, spectrophotometric (Cu2+); type: physicochemical
From the text: (§1) The chelating activities of Ajuga reptans extracts in relation to Fe^2+, Fe^3+, Cu^2+ and Ni^2+ metal ions has been determined by means of spectrophotometric measurements using a Shimadzu 1770 UV spectrophotometer. The activities of chelating agents depends on the association constant (equilibrium) of their reactions with the metals according to the following reaction:
(§2) [formula] wherein Keq is the equilibrium constant equal to the ratio of concentrations at equilibrium of a complex and a product of equilibrium concentrations of metal ions and a chelator:
(§3) The method used for determining chelating activities is well documented in the literature (Korkina L G, Afarras'er I B. Antioxidant and chelating properties of flavonoids. Adv. Pharmacol., 1997, 38:151-63). The results are expressed as Keq (M^−1) calculated for a pure phenylpropanoid. This way the chelating activity against ferrous (Fe II), ferric (Fe III), copper (Cu II) and nickel ions has been calculated.

[2] = Fe2+-induced lipid peroxidation (thiobarbituric acid); type: biochemical
From the text: Ajuga reptans Extracts 1 and 2, prepared as described in examples 1 and 2, and isoteupolioside have been used to assess in vitro antioxidant action with specific oxygen radical generating systems such as the superoxide anion (O2^−), the hydroxyl radical (HO^−), the peroxynitrite radical (ONOO^−) and the inhibition of lipid peroxidation. The superoxide anion has been measured by a chemiluminescent assay based on the hypoxanthine (HPX)/xanthine oxidase (XOD) reaction using the Lumimax Superoxide Anion Detection Kit (Stratagene, La Jolla, Calif., USA) and following the manufacturer's instructions. Hydroxyl radical scavenger activity has been measured by means of the Fenton reaction for the production of hydroxyl radicals and chemiluminescent dosage (using a Victor^3 chemiluminometer, Wallac, Finland) with luminol. Peroxynitrite ions have been determined by means of dosage with a spontaneous generator of peroxynitrites (3-morpholinosidnonimine hydrochloride; SIN-1) and a stable reagent for the nitroxyl ions (2-(4-carboxyphenyl)-4,4,5,5-tetramethylimidazoline-1-oxyl-3-oxide potassium salt PTIO spin trap) then dosed by means of electron spin resonance (ESR) using a Nippon Denshi JES-FR30. […]

white blood cells = assay: Luminol dependent chemiluminescence of PMA-stimulated white blood cells; type: cell-based; conditions: Homo sapiens, 0.5 h, read-out: White blood cell chemiluminescence (IC50 mg/ml)
Procedure: (§4) Anti-inflammatory activity has been assessed by measuring luminol dependent chemiluminescence generated by free radicals released from whole blood and from white blood cells. The assay has been performed using the following protocol: 10 μl of fresh human blood is mixed with 0.980 ml of Hanks saline solution containing 5×10^−5 M luminol and the test sample (at various concentrations). The chemiluminescent response is recorded continuously for 30 minutes at a temperature of 37° C. The results are expressed as IC50 (mg/ml), i.e. as the minimum sample concentration inhibiting chemiluminescence by 50% with respect to the control. To isolate white blood cells (WBC) from whole blood one proceeds in the following manner: 1 ml of fresh blood is layered onto a Hipaque gradient (p=1.119) and centrifuged at 250×g for 60 minutes at room temperature. Following centrifugation, the pellet containing the white blood cells is washed twice, using a large volume of cold Hanks saline solution. Finally, the washed WBCs are resuspended in 0.1 ml di HBSS containing foetal calf serum. 10^6 WBC are added to a chemiluminometer cuvette. 10 μl of PMA (final concentration equal to 10 nM) are added to induce the formation of free radicals. The chemiluminescent response is recorded continuously for 30 minutes at a temperature of 37° C. […]

[3] = Metal chelation, spectrophotometric (Ni2+); type: physicochemical
From the text: as §1, §2, §3

whole blood = assay: Luminol dependent chemiluminescence of whole blood; type: cell-based, human; conditions: 0.5 h, read-out: Whole blood chemiluminescence (IC50 mg/ml)
Procedure: as §4

[4] = Metal chelation, spectrophotometric (Fe3+); type: physicochemical
From the text: as §1, §2, §3

tyrosinase = assay: Tyrosinase inhibition, conversion of L-DOPA to DOPAquinone; type: biochemical; conditions: 100 μg/ml
From the text: The enzyme tyrosinase catalyses the reactions leading to melanin biosynthesis from tyrosine. […] Substances inhibiting tyrosinase activity produce a clearing/bleaching effect on the skin, since they block melanin synthesis. The method used to determine the inhibition of tyrosinase activity in the oxidation reaction of L-tyrosine to L-DOPA is that described in Kim et al. […] Biol. Pharm. […] The method applied for determination of the inhibition of tyrosinase activity in the conversion of L-DOPA to DOPAquinone is that described in Masamoto et al. (Mushroom tyrosinase inhibitory activity of esculetin isolated from seeds of Euphorbia lathyris L. Biosci. Biotechnol. Biochem., 67(3), 631-634, 2003).

[5] = Hydroxyl radical scavenger activity (Fenton reaction, luminol chemiluminescence); type: biochemical
From the text: Ajuga reptans Extracts 1 and 2, prepared as described in examples 1 and 2, and isoteupolioside have been used to assess in vitro antioxidant action with specific oxygen radical generating systems such as the superoxide anion (O2^−), the hydroxyl radical (HO^−), the peroxynitrite radical (ONOO^−) and the inhibition of lipid peroxidation. The superoxide anion has been measured by a chemiluminescent assay based on the hypoxanthine (HPX)/xanthine oxidase (XOD) reaction using the Lumimax Superoxide Anion Detection Kit (Stratagene, La Jolla, Calif., USA) and following the manufacturer's instructions. Hydroxyl radical scavenger activity has been measured by means of the Fenton reaction for the production of hydroxyl radicals and chemiluminescent dosage (using a Victor^3 chemiluminometer, Wallac, Finland) with luminol. Peroxynitrite ions have been determined by means of dosage with a spontaneous generator of peroxynitrites (3-morpholinosidnonimine hydrochloride; SIN-1) and a stable reagent for the nitroxyl ions (2-(4-carboxyphenyl)-4,4,5,5-tetramethylimidazoline-1-oxyl-3-oxide potassium salt PTIO spin trap) then dosed by means of electron spin resonance (ESR) using a Nippon Denshi JES-FR30. Lipid peroxidation has been generated using Fe^2+ induced-oxygen reactive species, and detected using thiobarbituric acid in accordance with Buege, J A & Aust, S D: Microsomal lipid peroxidation (Methods Enzymol.
The Extract 1 and the Extract 2 set forth in Table 4 are derived from Ajuga reptans cell cultures comprising the phenylpropanoids at 90% and 54%, respectively. The results are expressed as the concentration inhibiting 50% of activity (IC50), means of 6 independent assays.

[6] = calculated for a pure phenylpropanoid

SMILES | Cu^2+ (Keq, M^−1) [1] [M⁻¹] | Lipid peroxidation (IC50) [2] [µg/mL] | IC50 (white blood cells) [mg/mL] | Ni^2+ (Keq, M^−1) [3] [M⁻¹] | IC50 (whole blood; Homo sapiens) [mg/mL] | Fe^3+ (Keq, M^−1) [4] [M⁻¹] | Test LDOPA-DOPAquinone inhibitory activity (%) (tyrosinase) | Hydroxyl radial (IC50) [5] [µg/mL] | Cu^2+ (Keq, M^−1) [1, 6] [M⁻¹] | Lipid peroxidation (IC50) ([2]; means of 6 independent assays) [µg/mL] | IC50 (white blood cells; 10^6 WBC, PMA 10 nM, 30 min, 37° C.) [mg/mL] | Ni^2+ (Keq, M^−1) [3, 6] [M⁻¹] | IC50 (whole blood; fresh human blood, luminol, 30 min, 37° C.) [mg/mL] | Fe^3+ (Keq, M^−1) [4, 6] [M⁻¹] | Hydroxyl radial (IC50) ([5]; means of 6 independent assays) [µg/mL]
CC1OC(OC2C(O)C(COC(=O)C=Cc3ccc(O)c(O)c3)OC(OCCc3ccc(O)c(O)c3)C2O)C(OC2OC(CO)C(O)C(O)C2O)C(O)C1O (stereo not shown) [Isoteupolioside, isoteupolioside] | 70000 ± 20000 | 9.14 | 0.4 (≈ 508 µM) | 2631 ± 373 | 1.3 (≈ 1650 µM) | 420000 ± 110000 | 20 | 1.04 |  |  |  |  |  |  | 
C[C@@H]1O[C@@H](O[C@@H]2[C@@H](O)[C@H](OCCc3ccc(O)c(O)c3)O[C@H](CO)[C@H]2OC(=O)/C=C/c2ccc(O)c(O)c2)[C@H](O[C@@H]2O[C@H](CO)[C@H](O)[C@H](O)[C@H]2O)[C@H](O)[C@H]1O [Teupolioside, teupolioside] |  |  |  |  |  |  | 21 |  | 80000 ± 30000 | 9.4 | 0.5 (≈ 636 µM) | 2658 ± 365 | 1.4 (≈ 1780 µM) | 430000 ± 90000 | 1.6

Reference: US9623063B2, “Extracts from Ajuga reptans cell lines, their preparation and use” (I.R.B. ISTITUTO DI RICERCHE BIOTECNOLOGICHE S.r.l., priority 2005, dated 2017)
